The text below walks through data of ChEMBL document CHEMBL3997817, “Filamenting temperature-sensitive mutant Z inhibitors from Glycyrrhiza glabra and their inhibitory mode of action” (Bioorg Med Chem Lett, 2017).

Assay [1] has as its system Bacillus subtilis. Nature of the assay: Inhibition of Bacillus subtilis N-terminal hexahistidine-tagged FtsZ GTPase activity expressed in Escherichia coli BL21 (DE3) assessed as residual activity at 200 uM after 1 hr relative to control.
For assay [2], the system named is Escherichia coli. In words: Inhibition of Escherichia coli N-terminal hexahistidine-tagged FtsZ GTPase activity expressed in Escherichia coli BL21 (DE3) assessed as residual activity at 200 uM after 1 hr relative to control.
For assay [3], the system named is Bacillus subtilis. Nature of the assay: Inhibition of Bacillus subtilis N-terminal hexahistidine-tagged FtsZ GTPase activity expressed in Escherichia coli BL21 (DE3) assessed as residual activity at 20 uM after 1 hr relative to control.
Assay [4] deals with Bacillus subtilis. In words: Inhibition of Bacillus subtilis N-terminal hexahistidine-tagged FtsZ GTPase activity expressed in Escherichia coli BL21 (DE3) at 100 uM after 1 hr relative to control.
Assay [5] has as its system Bacillus subtilis. Nature of the assay: Inhibition of Bacillus subtilis N-terminal hexahistidine-tagged FtsZ GTPase activity expressed in Escherichia coli BL21 (DE3) assessed as residual activity at 100 uM after 1 hr relative to control.
For assay [6], the system named is Escherichia coli. Nature of the assay: Inhibition of Escherichia coli N-terminal hexahistidine-tagged FtsZ GTPase activity expressed in Escherichia coli BL21 (DE3) assessed as residual activity at 20 uM after 1 hr relative to control.
Assay [7] has as its system Escherichia coli. In words: Inhibition of Escherichia coli N-terminal hexahistidine-tagged FtsZ GTPase activity expressed in Escherichia coli BL21 (DE3) assessed as residual activity at 100 uM after 1 hr relative to control.
Assay [8] has as its system Bacillus subtilis. In words: Inhibition of Bacillus subtilis N-terminal hexahistidine-tagged FtsZ V307R mutant GTPase activity expressed in Escherichia coli BL21 (DE3) after 1 hr relative to wild type protein. The conditions noted are these: concentration not given here.
Assay [9] in a line: Uncompetitive inhibition of Bacillus subtilis N-terminal hexahistidine-tagged FtsZ GTPase activity expressed in Escherichia coli BL21 (DE3) after 1 hr by Lineweaver-Burk plot analysis.
Assay [10] has as its system Bacillus subtilis. Nature of the assay: Antibacterial activity against Bacillus subtilis NBRC 3134 after overnight incubation by MTT assay. It is filed as functional. A general note: Formazan colour is commonly taken as a measure of viable cells.

Converted amounts (≈) assume the structure as drawn. Some results are limits rather than exact numbers.

As to `COc1c(CC=C(C)C)c(O)cc2oc(=O)c(-c3ccc(O)cc3O)cc12`, the Activity in [1] was 30.4%; in assay [2], 67.3%; in assay [3], 87.8%; in assay [5] it was 52.3%; in assay [6] it was 95.9%; in assay [7] it was 85.6%. Besides, the fold change (FC) in assay [4] lay within 0.8 to 7.7.

A word on the inhibition: it is how much of the control response was suppressed. High values mean a strong effect, low ones a weak effect. As usually defined, the Ki is a measure of affinity in units of concentration, obtained from inhibition or displacement. Usually MIC stands for the lowest concentration that inhibits growth of the organism. Low readings indicate a more susceptible organism, high ones a less susceptible organism. With `CC(C)=CCc1cc(-c2oc3cc(O)cc(O)c3c(=O)c2O)ccc1O` [ISOLICOFLAVONOL], the Activity in assay [1] worked out at 7.7%; in assay [3], 48.5%; in [5] it was 10.1%; in assay [6] it was 95.2%; in assay [7], 61.2%. The molecule also had an inhibition in assay [8] of 60%. In assay [9], this molecule displayed a Ki of 37.7 µM. Further, the fold change (FC) in assay [4] is 0.8 to 7.7. Besides, the MIC in [10] turned out to be 40 µM (≈ 14.2 µg/mL).

Turning to `NC[C@H]1O[C@H](O[C@H]2[C@H](O)[C@@H](O[C@H]3O[C@H](CO)[C@@H](O)[C@H](N)[C@H]3O)[C@H](N)C[C@@H]2N)[C@H](O)[C@@H](O)[C@@H]1O` [KANAMYCIN], in [10], the MIC is less than 20 µM.

Turning to `COc1c(CC=C(C)C)c(O)cc2oc(-c3ccc(O)cc3O)cc12`, the Activity in assay [1] was 35.3%; in assay [3] it was 98.1%; in assay [5] it was 55.5%; in assay [6], 99.4%; in [7], 73.5%. Further, the fold change (FC) in [4] fell in the range of 0.8 to 7.7.

`COc1cc2oc(-c3ccc(O)cc3O)cc2c(OC)c1CC=C(C)C`: the Activity in assay [1] came to 10.1%; in [3], 37.4%; in assay [5], 10.1%; in [6], 88.4%; in [7] it was 63.2%. This molecule displayed an inhibition in assay [8] of 60%. Moreover, in assay [9], the Ki was 30.9 µM. For the same molecule, the fold change (FC) in [4] was 0.8 to 7.7. The MIC in [10] stood at 5 µM (≈ 1.77 µg/mL).

Take `COc1c(CC=C(C)C)c(O)cc(O)c1-c1coc2cc(O)ccc2c1=O`: the Activity in assay [1] worked out at 90.2%; in [2], 106%; in [3] it was 97.4%; in [5], 96.8%; in assay [6], 101%; in assay [7], 105%. In addition, the fold change (FC) in assay [4] was in the range of 0.8 to 7.7.

Turning to `CCN(CC)CCNc1nc(/C=C/c2ccc(Cl)cc2)nc2cc3ccccc3cc12`, the Activity in assay [1] is 8%; in [2], 7.7%; in [3], 75.3%; in assay [5], 12.6%; in [6] it was 57.7%; in assay [7] it was 12%.

As to `CC(C)=CCc1cc(-c2coc3cc(O)cc(O)c3c2=O)cc(O)c1O`, the Activity in assay [1] worked out at 63.4%; in assay [2], 93.1%; in assay [3], 89.1%; in [5] it was 85.1%; in [6], 97.7%; in assay [7] it was 98.3%. Besides, the fold change (FC) in assay [4] lay within 0.8 to 7.7.

As to `COc1cc2oc(=O)c(-c3ccc(O)cc3O)cc2c(OC)c1CC=C(C)C` [GLYCYRIN], the Activity in [1] worked out at 17%; in assay [2] it was 88.6%; in assay [3], 74.4%; in assay [5], 17.5%; in assay [6], 103%; in assay [7], 87.8%. Moreover, the inhibition in assay [8] worked out at 60%. The molecule further displayed a Ki in assay [9] of 42.6 µM. In assay [4], the fold change (FC) was 0.8 to 7.7. The same molecule returned an MIC in [10] of 40 µM (≈ 15.3 µg/mL).
